# Laboratory results taken from patent US20150005306A1 (priority 2013, published 2015).
# “Also recorded” adds a separate entry of the source.
# What was measured:
# [1] = test system: Alzheimer's disease transgenic mouse; test: Fear conditioning-contextual test; type: in vivo; conditions: 1 mg/kg of each drug, after the 13 weeks of Example 1
# Source text: (§1) To observe the effects of the combination of EPPS and donepezil, the experimental animal subjected to the Y-maze behavior test for 13 weeks in Example 1 was subjected to a fear conditioning test for testing fearful memory of space and sound.
# (§2) The fear conditioning test was divided into a fear conditioning-contextual test that tests fearful memory of space and fear conditioning-cued test that tests fearful memory of sound.
# (§3) The test included a pair of sound stimulation (CS(conditioned stimulus), 30 seconds, 85 dB, and 30 kHz) and electric shock (US(unconditioned stimulus), 1 second, and 0.5 mA), which was repeated twice. Each was performed with a term of 90 seconds and the mouse was taken out from the conditioning box 90 seconds after the last electric shock (US). The following tests were performed after 24 hours.
# Contextual test: the experimental animal was maintained in the conditioning box and freeze response were measured without providing sound stimulation and electric shock, results of which were used as a scale of conditioned fearful reaction. The freeze reaction was defined as a motionless state, except for breathing.
# [2] = test system: Alzheimer's disease transgenic mouse; test: Y-maze behavior test (spontaneous alternation); type: in vivo; conditions: B6C3-Tg(APPswe, PSEN1dE9) mouse, 1 mg/kg of each drug orally every day, Y-maze once every week for 13 weeks
# Protocol: To test the effects of a combination of EPPS and donepezil, a Y-maze behavior test for evaluating learning memory of an Alzheimer's disease transgenic mouse was performed.
# 10 months old B6C3-Tg(APPswe, PSEN1dE9)85Dbo/Mmjax (The Jackson Laboratory, the U.S.A.) was used as the Alzheimer's disease transgenic mouse, as an experimental animal. The experimental animal was divided into three groups, namely, a donepezil administered group, an EPPS administered group, and a combination of donepezil and EPPS administered group were orally administered with respective drugs everyday in the amounts shown in Table 1 below and the Y-maze test was performed once every week for 13 weeks. As a control group, a transgenic mouse that was not administered with a drug was used as a negative control group and a normal mouse that was not administered with a drug was used as a positive control group.
# The Y-maze instrument includes a maze made of a black acrylic board [branches: width 6 cm, length 40 cm, and height 12 cm] having a Y-shape in which all corners were blocked and each branch was disposed at a uniform angle of 120°. […] Frequencies and sequences of the experimental animal moving into each branch were measured to evaluate spontaneous alternation (%). […]
# [3] = test system: Alzheimer's disease transgenic mouse; test: Fear conditioning-cued test; type: in vivo; conditions: 1 mg/kg of each drug, after the 13 weeks of Example 1
# Source text: as §1, §2, §3
# Cued test: To change the context after 24 hours of the contextual test, the mouse was put into a box other than the box used for the contextual test and was provided with a sound stimulation identical to the contextual test (electric shock was not provided) to measure freeze reactions. The results were used as a scale for fear response conditioned to the cues.
# [4] = test system: β-amyloid fibrils or oligomers; conditions: as disclosed in a research paper; cited from earlier work
SMILES,"Average freeze response, contextual test [1]","improvement in cognitive skills (normalized % alternation rate, FIG. 1) [2]","Average freeze response, cued test [3]",effect on accumulation of β-amyloid fibrils or oligomers [4]
"COc1cc2c(cc1OC)C(=O)C(CC1CCN(Cc3ccccc3)CC1)C2 (stereo not shown) [donepezil, reference compound]",16.602,"initially showed a rapid improvement in cognitive skills, but the improvement reached peak at 5 weeks and decreased at 7 weeks; also recorded: rapid but short-term improvement in cognitive skills",58.9167,–
"O=S(=O)(O)CCCN1CCN(CCO)CC1 [EPPS, N-(2-hydroxyethyl)piperazine-N′(3-propanesulfonic acid)]",34.437,gradual improvement in the cognitive skills compared with that of the donepezil administered group; also recorded: reached the same level of cognitive skills as the donepezil administered group at 10 weeks; also recorded: long-term improvement in cognitive skills but a slower improvement compared with donepezil and a lower improvement compared with the combination of EPPS and donepezil,55.1042,inhibits the accumulation of β-amyloid fibrils or oligomers and decomposes the accumulated β-amyloid fibrils or oligomers
